In patent publication US11980596B2 (priority 2017, dated 2024):

Test system: subjects with MDD at imminent risk for suicide
[1] = esketamine 84 mg, double-blind phase, N = 35

Description: The study consisted of a screening evaluation performed within 24 hours (or up to 48 hours upon consultation with the Sponsor's medical monitor) prior to Day 1 dose, immediately followed by a 25-day double-blind treatment phase (Day 1 to 25) with twice a week dosing, and a 56-day follow up phase (Day 26 to Day 81). The study was designed as a POC study and therefore a two-sided 0.20 significance level was used.
Among 68 randomized subjects, 66 were included in the safety analysis set (defined as receiving at least one dose of study medication in the double-blind phase). […] All safety subjects (N=66) were included in the intent-to-treat (ITT) analysis set (defined as receiving at least one dose of study medication during the double-blind phase and having both the baseline and the Day 1, 4-hour postdose evaluation for the MADRS total score). Forty-nine subjects were included in the safety (FU) analysis set (defined as all subjects who have at least 1 visit during the follow up phase).

With CN[C@]1(c2ccccc2Cl)CCCCC1=O [esketamine, (S)-2-(2-chlorophenyl)-2-(methylamino)cyclohexanone] the “Discontinued from the double-blind phase due to (treatment-emergent) adverse events” value (84 mg) was 5 subjects, the “Subjects with a serious adverse event” value (84 mg group, follow up phase) was 1 subjects and the “TEAE: dissociation” value (84 mg, double-blind phase) was 31.4%. For the same compound, the “TEAE: dizziness” value (84 mg, double-blind phase) was 34.3%, the “TEAE: dysgeusia” value (84 mg, double-blind phase) was 31.4% and the “TEAE: headache” value (84 mg, double-blind phase) was 31.4%. For the same compound, the “TEAE: nausea” value (84 mg, double-blind phase) was 37.1%, the “TEAE: vomiting” value (84 mg, double-blind phase) was 20.0% and the “Withdrawn from double-blind phase: Adverse event” value (esketamine 84 mg, all randomized analysis set, N = 36) was 5 (13.9%) subjects (%). For the same compound, the “1 or more serious TEAE” value [1] was 4 (11.4%) subjects (%), the “Serious TEAE: Agitation” value [1] was 1 (2.9%) subjects (%) and the “Serious TEAE: Depressive symptom” value [1] was 1 (2.9%) subjects (%). The “Serious TEAE: Psychiatric disorders” value [1] was 4 (11.4%) subjects (%), the “Serious TEAE: Suicidal ideation” value [1] was 2 (5.7%) subjects (%) and the TEAE [1] was 33 (94.3%) subjects (%). The “TEAE Abdominal pain, no. subjects” value [1] was 0, the “TEAE Acne, % of subjects” value [1] was “(5.7%)” and the “TEAE Acne, no. subjects” value [1] was 2. The “TEAE Agitation, % of subjects” value [1] was “(8.6%)”, the “TEAE Agitation, no. subjects” value [1] was 3 and the “TEAE Anxiety, % of subjects” value [1] was “(17.1%)”. For the same compound, the “TEAE Anxiety, no. subjects” value [1] was 6, the “TEAE Blepharospasm, no. subjects” value [1] was 0 and the “TEAE Blood pressure increased, % of subjects” value [1] was “(5.7%)”. For the same compound, the “TEAE Blood pressure increased, no. subjects” value [1] was 2, the “TEAE Constipation, no. subjects” value [1] was 0 and the “TEAE Diarrhea, % of subjects” value [1] was “(8.6%)”. The “TEAE Diarrhea, no. subjects” value [1] was 3, the “TEAE Diplopia, % of subjects” value [1] was “(5.7%)” and the “TEAE Diplopia, no. subjects” value [1] was 2. The “TEAE Dissociation, % of subjects” value [1] was “(31.4%)”, the “TEAE Dissociation, no. subjects” value [1] was 11 and the “TEAE Dizziness postural, % of subjects” value [1] was “(5.7%)”. For the same compound, the “TEAE Dizziness postural, no. subjects” value [1] was 2, the “TEAE Dizziness, % of subjects” value [1] was “(34.3%)” and the “TEAE Dizziness, no. subjects” value [1] was 12. The “TEAE Dry mouth, % of subjects” value [1] was “(8.6%)”, the “TEAE Dry mouth, no. subjects” value [1] was 3 and the “TEAE Dysgeusia, % of subjects” value [1] was “(31.4%)”. The “TEAE Dysgeusia, no. subjects” value [1] was 11, the “TEAE Ear and labyrinth disorders, % of subjects” value [1] was “(25.7%)” and the “TEAE Ear and labyrinth disorders, no. subjects” value [1] was 9. For the same compound, the “TEAE Epistaxis, no. subjects” value [1] was 0, the “TEAE Euphoric mood, % of subjects” value [1] was “(11.4%)” and the “TEAE Euphoric mood, no. subjects” value [1] was 4. For the same compound, the “TEAE Eye disorders, % of subjects” value [1] was “(20.0%)”, the “TEAE Eye disorders, no. subjects” value [1] was 7 and the “TEAE Fatigue, % of subjects” value [1] was “(5.7%)”. For the same compound, the “TEAE Fatigue, no. subjects” value [1] was 2, the “TEAE Feeling abnormal, % of subjects” value [1] was “(8.6%)” and the “TEAE Feeling abnormal, no. subjects” value [1] was 3. The “TEAE Feeling cold, % of subjects” value [1] was “(5.7%)”, the “TEAE Feeling cold, no. subjects” value [1] was 2 and the “TEAE Flatulence, % of subjects” value [1] was “(2.9%)”. For the same compound, the “TEAE Flatulence, no. subjects” value [1] was 1, the “TEAE Gastrointestinal disorders, % of subjects” value [1] was “(54.3%)” and the “TEAE Gastrointestinal disorders, no. subjects” value [1] was 19. For the same compound, the “TEAE General disorders and administration site conditions, % of subjects” value [1] was “(28.6%)”, the “TEAE General disorders and administration site conditions, no. subjects” value [1] was 10 and the “TEAE Headache, % of subjects” value [1] was “(31.4%)”. The “TEAE Headache, no. subjects” value [1] was 11, the “TEAE Hyperacusis, % of subjects” value [1] was “(5.7%)” and the “TEAE Hyperacusis, no. subjects” value [1] was 2. The “TEAE Hyperhidrosis, % of subjects” value [1] was “(5.7%)”, the “TEAE Hyperhidrosis, no. subjects” value [1] was 2 and the “TEAE Hypoesthesia oral, % of subjects” value [1] was “(5.7%)”. The “TEAE Hypoesthesia oral, no. subjects” value [1] was 2, the “TEAE Hypoesthesia, % of subjects” value [1] was “(8.6%)” and the “TEAE Hypoesthesia, no. subjects” value [1] was 3. The “TEAE Infections and infestations, % of subjects” value [1] was “(2.9%)”, the “TEAE Infections and infestations, no. subjects” value [1] was 1 and the “TEAE Insomnia, % of subjects” value [1] was “(8.6%)”. The “TEAE Insomnia, no. subjects” value [1] was 3, the “TEAE Intranasal paranesthesia, no. subjects” value [1] was 0 and the “TEAE Investigations, % of subjects” value [1] was “(14.3%)”. For the same compound, the “TEAE Investigations, no. subjects” value [1] was 5, the “TEAE Nasal congestion, % of subjects” value [1] was “(2.9%)” and the “TEAE Nasal congestion, no. subjects” value [1] was 1. For the same compound, the “TEAE Nasal discomfort, % of subjects” value [1] was “(8.6%)”, the “TEAE Nasal discomfort, no. subjects” value [1] was 3 and the “TEAE Nausea, % of subjects” value [1] was “(37.1%)”. For the same compound, the “TEAE Nausea, no. subjects” value [1] was 13, the “TEAE Nervous system disorders, % of subjects” value [1] was “(71.4%)” and the “TEAE Nervous system disorders, no. subjects” value [1] was 25. For the same compound, the “TEAE Oropharyngeal pain, % of subjects” value [1] was “(5.7%)”, the “TEAE Oropharyngeal pain, no. subjects” value [1] was 2 and the “TEAE Panic attack, no. subjects” value [1] was 0. The “TEAE Paresthesia oral, % of subjects” value [1] was “(5.7%)”, the “TEAE Paresthesia oral, no. subjects” value [1] was 2 and the “TEAE Paresthesia, % of subjects” value [1] was “(17.1%)”. The “TEAE Paresthesia, no. subjects” value [1] was 6, the “TEAE Pharyngeal hypoesthesia, % of subjects” value [1] was “(5.7%)” and the “TEAE Pharyngeal hypoesthesia, no. subjects” value [1] was 2. The “TEAE Pollakiuria, no. subjects” value [1] was 0, the “TEAE Psychiatric disorders, % of subjects” value [1] was “(57.1%)” and the “TEAE Psychiatric disorders, no. subjects” value [1] was 20. For the same compound, the “TEAE Rash, % of subjects” value [1] was “(2.9%)”, the “TEAE Rash, no. subjects” value [1] was 1 and the “TEAE Renal and urinary disorders, % of subjects” value [1] was “(2.9%)”. For the same compound, the “TEAE Renal and urinary disorders, no. subjects” value [1] was 1, the “TEAE Respiratory, thoracic and mediastinal disorders, % of subjects” value [1] was “(25.7%)” and the “TEAE Respiratory, thoracic and mediastinal disorders, no. subjects” value [1] was 9. For the same compound, the “TEAE Rhinalgia, no. subjects” value [1] was 0, the “TEAE Rhinorrhoea, no. subjects” value [1] was 0 and the “TEAE Sedation, % of subjects” value [1] was “(17.1%)”. For the same compound, the “TEAE Sedation, no. subjects” value [1] was 6, the “TEAE Skin and subcutaneous tissue disorders, % of subjects” value [1] was “(14.3%)” and the “TEAE Skin and subcutaneous tissue disorders, no. subjects” value [1] was 5. The “TEAE Somnolence, % of subjects” value [1] was “(11.4%)”, the “TEAE Somnolence, no. subjects” value [1] was 4 and the “TEAE Suicidal ideation, % of subjects” value [1] was “(5.7%)”. For the same compound, the “TEAE Suicidal ideation, no. subjects” value [1] was 2, the “TEAE Throat irritation, % of subjects” value [1] was “(8.6%)” and the “TEAE Throat irritation, no. subjects” value [1] was 3. For the same compound, the “TEAE Tinnitus, % of subjects” value [1] was “(5.7%)”, the “TEAE Tinnitus, no. subjects” value [1] was 2 and the “TEAE Toothache, no. subjects” value [1] was 0. The “TEAE Upper respiratory tract infection, no. subjects” value [1] was 0, the “TEAE Vertigo, % of subjects” value [1] was “(11.4%)” and the “TEAE Vertigo, no. subjects” value [1] was 4. For the same compound, the “TEAE Vision blurred, % of subjects” value [1] was “(8.6%)”, the “TEAE Vision blurred, no. subjects” value [1] was 3 and the “TEAE Vomiting, % of subjects” value [1] was “(20.0%)”. For the same compound, the “TEAE Vomiting, no. subjects” value [1] was 7, the “TEAE Weight increased, % of subjects” value [1] was “(5.7%)” and the “TEAE Weight increased, no. subjects” value [1] was 2. The “TEAE leading to death” value [1] was 0 subjects (%), the “TEAE leading to drug withdrawn” value [1] was 5 (14.3%) subjects (%) and the “TEAE leading to study discontinuation: Aggression” value [1] was 1 (2.9%) subjects (%). For the same compound, the “TEAE leading to study discontinuation: Agitation” value [1] was 1 (2.9%) subjects (%), the “TEAE leading to study discontinuation: Cardiac disorders” value [1] was 1 (2.9%) subjects (%) and the “TEAE leading to study discontinuation: Dissociative disorder” value [1] was 0 subjects (%). The “TEAE leading to study discontinuation: Dizziness” value [1] was 1 (2.9%) subjects (%).
